{"source": "ChEMBL document CHEMBL1156551", "about": "“Chlorohydroaspyrones A and B, antibacterial aspyrone derivatives from the marine-derived fungus Exophiala sp” (2008)", "format_in_all_cases": "functional", "key": {"Staphylococcus aureus [1]": {"test_system": "Staphylococcus aureus", "assay": "Antibacterial activity against Staphylococcus aureus after 18 hrs by conventional 2 fold serial dilution method"}, "Staphylococcus aureus [2]": {"test_system": "Staphylococcus aureus", "assay": "Antibacterial activity against multidrug-resistant Staphylococcus aureus after 18 hrs by conventional 2 fold serial dilution method"}, "Staphylococcus aureus [3]": {"test_system": "Staphylococcus aureus", "assay": "Antibacterial activity against methicillin-resistant Staphylococcus aureus after 18 hrs by conventional 2 fold serial dilution method"}}}
{"smiles": "C[C@H](O)[C@H](Cl)C1=C[C@H](O)[C@@H](C)OC1=O", "note": "[CHLOROHYDROASPYRONE A]", "values": [{"measurement": "MIC", "setting": "Staphylococcus aureus [1]", "value": 62.5, "unit": "µg/mL"}, {"measurement": "MIC", "setting": "Staphylococcus aureus [2]", "value": 125, "unit": "µg/mL"}, {"measurement": "MIC", "setting": "Staphylococcus aureus [3]", "value": 125, "unit": "µg/mL"}]}
{"smiles": "C[C@H](Cl)[C@@H](O)C1=C[C@H](O)[C@@H](C)OC1=O", "note": "[CHLOROHYDROASPYRONE B]", "values": [{"measurement": "MIC", "setting": "Staphylococcus aureus [1]", "value": 62.5, "unit": "µg/mL"}, {"measurement": "MIC", "setting": "Staphylococcus aureus [2]", "value": 125, "unit": "µg/mL"}, {"measurement": "MIC", "setting": "Staphylococcus aureus [3]", "value": 62.5, "unit": "µg/mL"}]}
